Laboratory results: paper PMC3646808, “Aggregate-Reactivation Activity of the Molecular Chaperone ClpB from Ehrlichia chaffeensis” (PLoS ONE, 2013)
Values belong to the compound of their own block, whether it stands above or below them.

Key:
EhClpB = target: T1, EhClpB (Ehrlichia chaffeensis, UniProt Q2GH96); conditions: 5 mM ATP, 10 mM MgCl2, 100 mM Tris/HCl pH 8.0, 37 °C; basal activity
T1 construct: gene clpB

EcClpB [1] = target: T2, EcClpB (Escherichia coli, UniProt P63284); assay: phosphate release ATPase assay; format: biochemical; conditions: 5 mM ATP, 10 mM MgCl2, 100 mM Tris/HCl pH 8.0, 37 °C; basal activity
T2 construct: gene clpB; purified, produced or obtained as previously described; hexamer
T2 sequence (P63284 whole entry): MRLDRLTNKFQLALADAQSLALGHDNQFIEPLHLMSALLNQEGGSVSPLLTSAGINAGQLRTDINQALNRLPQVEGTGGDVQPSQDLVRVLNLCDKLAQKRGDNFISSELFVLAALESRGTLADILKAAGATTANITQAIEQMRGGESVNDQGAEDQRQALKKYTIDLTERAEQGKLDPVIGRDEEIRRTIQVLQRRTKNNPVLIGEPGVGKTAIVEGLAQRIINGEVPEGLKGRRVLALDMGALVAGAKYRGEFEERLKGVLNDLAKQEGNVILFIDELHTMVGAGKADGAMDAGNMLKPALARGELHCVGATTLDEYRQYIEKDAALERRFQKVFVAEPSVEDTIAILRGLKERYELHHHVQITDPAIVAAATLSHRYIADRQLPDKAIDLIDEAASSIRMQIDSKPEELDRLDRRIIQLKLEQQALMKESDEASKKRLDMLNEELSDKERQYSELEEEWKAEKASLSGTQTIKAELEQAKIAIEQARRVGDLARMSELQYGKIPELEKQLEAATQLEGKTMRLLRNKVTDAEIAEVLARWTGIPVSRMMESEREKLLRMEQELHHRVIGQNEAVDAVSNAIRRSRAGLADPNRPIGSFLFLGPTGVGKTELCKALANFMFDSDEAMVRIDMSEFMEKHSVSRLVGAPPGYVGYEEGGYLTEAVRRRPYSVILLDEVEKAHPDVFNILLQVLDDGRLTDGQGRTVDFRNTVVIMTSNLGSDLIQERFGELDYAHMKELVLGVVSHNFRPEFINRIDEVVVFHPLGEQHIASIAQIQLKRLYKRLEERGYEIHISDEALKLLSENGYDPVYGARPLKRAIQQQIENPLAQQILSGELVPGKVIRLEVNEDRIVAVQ

[2] = target: ClpB from Ehrlichia chaffeensis (E. chaffeensis); assay: AUC; sedimentation velocity, 48,000 rpm, 20°C, 0.3 mg/ml protein in 50 mM Hepes/KOH pH 7.5, 0.2 M KCl, 20 mM MgCl2, 1 mM EDTA, 2 mM β-mercaptoethanol, with 2 mM ATPγS
EcClpB [3] = target: T2, EcClpB; assay: filter retention with SDS-PAGE, nucleotide-induced binding to aggregated G6PDH; conditions: 6 mM nucleotide, 20 mM Mg(OAc)2, 50 mM Tris/HCl pH 7.5, 30 °C; indirect read-out

T1 sequence (Q2GH96 entry or part of it): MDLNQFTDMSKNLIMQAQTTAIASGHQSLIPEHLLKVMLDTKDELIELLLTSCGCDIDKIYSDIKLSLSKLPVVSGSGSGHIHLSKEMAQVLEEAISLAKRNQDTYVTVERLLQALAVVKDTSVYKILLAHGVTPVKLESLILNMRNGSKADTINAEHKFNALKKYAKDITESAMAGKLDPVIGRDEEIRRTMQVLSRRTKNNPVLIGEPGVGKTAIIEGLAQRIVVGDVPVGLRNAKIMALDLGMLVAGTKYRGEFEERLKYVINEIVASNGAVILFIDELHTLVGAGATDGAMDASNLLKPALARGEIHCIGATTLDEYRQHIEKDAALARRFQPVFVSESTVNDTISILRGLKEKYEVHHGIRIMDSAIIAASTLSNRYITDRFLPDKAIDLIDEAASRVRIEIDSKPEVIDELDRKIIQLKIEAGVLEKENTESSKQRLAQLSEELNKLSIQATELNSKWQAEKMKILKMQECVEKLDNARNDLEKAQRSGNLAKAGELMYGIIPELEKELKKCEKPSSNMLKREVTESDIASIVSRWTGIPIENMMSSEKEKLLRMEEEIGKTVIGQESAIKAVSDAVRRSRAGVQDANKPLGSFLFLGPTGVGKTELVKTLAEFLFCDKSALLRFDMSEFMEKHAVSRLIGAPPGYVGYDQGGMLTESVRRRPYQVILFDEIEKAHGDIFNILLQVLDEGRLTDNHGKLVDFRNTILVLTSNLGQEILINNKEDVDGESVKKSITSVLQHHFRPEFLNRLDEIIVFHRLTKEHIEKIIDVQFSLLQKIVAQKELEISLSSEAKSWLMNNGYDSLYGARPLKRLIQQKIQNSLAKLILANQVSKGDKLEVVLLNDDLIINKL

Compound: Nc1ncnc2c1ncn2[C@@H]1O[C@H](COP(=O)(O)OP(=O)(O)OP(=O)(O)O)[C@@H](O)[C@H]1O [ATP]
phosphate release ATPase assay (EhClpB): the basal ATPase of EhClpB was similar to that of the purified EcClpB | phosphate release ATPase assay (EcClpB [1]): the basal ATPase of EhClpB was similar to that of the purified EcClpB

stoichiometry N [2]: 6
Compound: ClpB from Ehrlichia chaffeensis (natural protein)

Compound: Nc1ncnc2c1ncn2[C@@H]1O[C@H](COP(=O)(O)OP(=O)(O)OP(O)(O)=S)[C@@H](O)[C@H]1O [ATPγS, adenosine-5'-(γ-thio)-triphosphate]
filter retention with SDS-PAGE, nucleotide-induced binding to aggregated G6PDH (EcClpB [3]): only ATPγS induces significant binding of EcClpB to the aggregates
